The subject of one data set is hNaV1.5. The data set is described as follows: Automated whole-cell patch clamp, hNaV1.5 + β1 in HEK 293 cells. It is filed as cell-based, human. The note with it: 3 μM, 50 ms pulse to −20 mV from −90 mV, ECS with 0.1% BSA, at least 2 min. On the procedure:
To examine for off-target activity on mammalian ion channels and receptors, we first tested the activity of sHt1a and Gg1a against human NaV channels. Whole-cell patch-clamp recordings were performed on Human Embryonic Kidney (HEK) 293 cells stably expressing human NaV1.4 or NaV1.5 in conjunction with the β1 subunit (SB Drug Discovery, Glasgow, United Kingdom) using a QPatch II automated electrophysiology platform (Sophion Bioscience, Ballerup, Denmark). Whole-cell currents were filtered at 8 kHz and acquired at 25 kHz. The linear leak was corrected by P/4 subtraction (leak potential −90 mV, leak sweep amplitude 10%). Series resistance across recorded cells ranged between 5 and 10 MΩ. The extracellular solution (ECS) consisted of (in mM): 145 NaCl, 4 KCl, 2 CaCl2, 1 MgCl2, 10 HEPES, and 10 glucose, adjusted to pH 7.4 with NaOH and to 305 mOsm/L with sucrose. The intracellular solution (ICS) consisted of (in mM): 140 CsF, 1 EGTA, 5 CsOH, 10 HEPES, and 10 NaCl, adjusted to pH 7.3 with CsOH and 320 mOsm/L with sucrose. Currents were elicited from a holding potential of −90 mV delivered with a 50 ms depolarising pulse to −20 mV every 20 s (0.05 Hz). Peptides were diluted in ECS containing 0.1% BSA and applied to cells for at least 2 min at the concentrations stated. Peak currents were normalised to the buffer control.
(Patch clamp records ionic current or voltage across a cell membrane.)

The next data set has as its system V. destructor mites. Kind of data set: Topical application of synthetic peptides and oxalic acid to V. destructor mites. It is filed as in vivo, Varroa destructor. The note with it: 0.48 μg/mite in 0.5% Silwet (v/v); for earliest onset of mortality: 2-hourly recording between 0 and 48 h; for survival/mortality of V. destructor: n = 5 mites per group, up to 48 h, vs 0.5% Silwet control, two-way ANOVA, Dunnett. The protocol:
An outline of the project discovery pipeline is presented in Supplementary Fig. 1. To identify varroacidal venom peptides, we screened venoms for activity against V. destructor by topical application. Topical tests were performed in several stages. First, whole venom was tested to determine mortality for V. destructor. Hit venoms were then subjected to several fractionation steps to isolate the active compounds. For the initial venom screen, a panel of 50 arthropod venoms (Table 1) were topically applied to V. destructor mites. Venoms were dissolved in 90% acetonitrile (v/v), and a 10 μg venom aliquot was applied per mite (n = 5 mites per venom). The dorsal plate of V. destructor mites (average mass 0.38 mg) was fixed to adhesive tape (ScotchTM 666 3 M; 19 × 32.9 mm, double sided) on microscope slides (ground edges 90° frosted end, 76 × 26 mm). A Nanoject II (Automatic Injector with Glass Capillaries, Drummond Cat.No. 3-000-205 A) was used for topical application of venom and control (90% acetonitrile) solutions. To accelerate solvent evaporation, the total volume of 483 nL was applied in seven aliquots of 69 nL each to the ventral plate of the mites between the posterior pair of legs. Each drop was allowed to dry before applying the next one, with the entire application procedure taking up to 1 h. Mite mortality was determined at various time intervals up to 48 h after the treatment using an Olympus stereomicroscope (SZX10/SZX2 Series). Initially, each mite was examined for movements of the legs, and immobile mites were stimulated with the tip of a wooden toothpick. Detection of static electricity by the mites, a few millimetres before the actual contact with the toothpick, was usually sufficient to trigger movement in mites that were still alive. […] At the later stage of the project, the slides with mites were placed into a self-constructed automated video monitoring system (using a USB camera) that employs an algorithm in OpenCV to subtract images from subsequent frames enabling the detection of changes in pixel intensity due to movements, for example of the extremities. Leg movements were stimulated with an air current applied over the mites at the time of image acquisition to determine mite mortality. The percentage of mite mortality for each venom was calculated at 2, 6 and 24 h, and adjusted by correcting for the mortality of the corresponding control group receiving only 90% acetonitrile.
The same procedure initially used for identifying varroacidal venoms was used for testing the topical activity of sHt1a and sGg1a. The peptides were dissolved in 0.5% Silwet L-77 (v/v), a silicone-based surfactant that is commonly used as a spreading agent for foliar sprays. 0.48 μg of peptide was topically applied to each mite, with n = 5 mites per treatment group. The activity of the sHt1a was confirmed using three cohorts of n = 5 mites, whereas the activity of sGg1a was confirmed using four cohorts of n = 5 mites. As a negative control, an equal volume of 0.5% Silwet (v/v) was topically applied (four cohorts of n = 5 mites), and 3% oxalic acid, a known varroacide used in commercial products[10] was used as positive control (eight cohorts of n = 5 mites). Mite mortality was recorded at 2-hourly intervals between 0 and 48 h after the treatment. For statistical analysis, mite survival data were plotted in Prism 10.0 (GraphPad Software, CA, USA), then a two-way ANOVA followed by Dunnett’s multiple comparisons test was performed, comparing the peptide and oxalic acid treatment against the respective 0.5% Silwet (v/v) control group data.

A further data set has as its system hCaV2.2. Kind of data set: FLIPR Ca2+ fluorescence, KCl/CaCl2-stimulated SH-SY5Y cells. Format: cell-based, human. The note with it: 10 µM, added 5 min prior to KCl/CaCl2 (90 mM/5 mM). On the procedure:
To further test the selectivity of sHt1a and sGg1a, we examined their activity on hNaV1.2/NaV1.7 and hCaV2.2 channels, as well as the hα3β2/4 nicotinic acetylcholine receptor (nAchR), that are endogenously expressed in the neuroblastoma cell line SH-SY5Y using a high-throughput fluorescent assay as previously described. In brief, SH-SY5Y cells were seeded at a density of 40,000 cells/well in black-walled imaging plates (Corning, Lowell, MA, USA), then incubated for 48 h at 37 °C in a 5% humidified CO2 incubator. On the day of the assay, cells were loaded with Calcium 4 No-wash dye (Molecular Devices) by reconstituting the lyophilised dye in physiological salt solution (PSS in mM: 140 NaCl, 11.5 glucose, 5.9 KCl, 1.4 MgCl2, 1.2 NaH2PO4, 5 NaHCO3, 1.8 CaCl2, 10 HEPES, pH 7.4). Cells were incubated with the dye for 30 min at 37 °C in a 5% humidified CO2 incubator. Gg1a and Ht1a (10 µM) were added 5 min prior to stimulation with either veratridine (50 µM, hNaV1.2/NaV1.7 activator), nicotine (30 µM, hα3β2/4 nAchR activator) or KCl/CaCl2 (90 mM/5 mM, CaV1.3/2.2 activator) Fluorescent responses were recorded using a FLIPR^Penta fluorescent plate reader (Molecular Devices) with excitation at 470–495 nm and emission at 515–575 nm.

“Also recorded” adds a separate entry of the source. No end group written: not given here.

Turning to “KYCAPRKAVCNTPADCCDKSSRCAYPNYGLGYYLDSEFFGKRKICSWRL (also: bicyclic or more (positions not given here)) [Ht1a, μ-gradutoxin-Ht1a]”, the “effect on hNaV1.5 currents” value in the data set on hNaV1.5 is “inactive”; in the data set with hNaV1.5 (listed as sHt1a), “did not significantly affect”. In the data set with V. destructor mites, the “earliest onset of mortality” value was 34 h. Further, the “survival/mortality of V. destructor” value with V. destructor mites was “induced topical mortality; also recorded: reduced varroa mite but not honeybee survival; also recorded: lethal to varroa mites”; in the data set on V. destructor mites (listed as sHt1a) it was “significantly reduced the survival; also recorded: significantly reduced V. destructor survival”. Moreover, the “effect on CaV2.2” value was “inactive” in the data set with hCaV2.2 and “did not significantly affect” with hCaV2.2 (listed as sHt1a).
Take U1-macrothelitoxin-Gg1a: the “effect on hNaV1.5 currents” value is “inactive” in the data set with hNaV1.5 and “did not significantly affect” in the data set with hNaV1.5 (listed as sGg1a). Further, in the data set with V. destructor mites, the “earliest onset of mortality” value was 16 h. Also, the “survival/mortality of V. destructor” value in the data set on V. destructor mites is “induced topical mortality; also recorded: reduced varroa mite but not honeybee survival; also recorded: lethal to varroa mites”; in the data set on V. destructor mites (listed as sGg1a) it was “significantly reduced the survival; also recorded: significantly reduced V. destructor survival”. In addition, the “effect on CaV2.2” value is “inactive” with hCaV2.2 and “did not significantly affect” with hCaV2.2 (listed as sGg1a).

Source of the values: PMC13233288, “Spider venom peptides Ht1a and Gg1a are toxic to honeybee parasite Varroa destructor by topical application” (npj Drug Discovery, 2026).
